In ChEMBL document CHEMBL5212743, “Selectivity Literature for EUbOPEN Chemogenomics Library wave 3” (2023):

Experiments:
[1] = biological target: Tyrosine-protein kinase JAK1 (Homo sapiens, UniProt P23458); assay: Selectivity interaction (KinomeScan (DiscoverX)) EUB0000178b JAK1@kinase 2; conditions: at 1 µM
[2] = biological target: T1, Serine/threonine-protein kinase ULK2 (Homo sapiens) (UniProt Q8IYT8); assay: Selectivity interaction (KinomeScan (DiscoverX)) EUB0000178b ULK2; conditions: at 1 µM
T1 sequence (whole entry): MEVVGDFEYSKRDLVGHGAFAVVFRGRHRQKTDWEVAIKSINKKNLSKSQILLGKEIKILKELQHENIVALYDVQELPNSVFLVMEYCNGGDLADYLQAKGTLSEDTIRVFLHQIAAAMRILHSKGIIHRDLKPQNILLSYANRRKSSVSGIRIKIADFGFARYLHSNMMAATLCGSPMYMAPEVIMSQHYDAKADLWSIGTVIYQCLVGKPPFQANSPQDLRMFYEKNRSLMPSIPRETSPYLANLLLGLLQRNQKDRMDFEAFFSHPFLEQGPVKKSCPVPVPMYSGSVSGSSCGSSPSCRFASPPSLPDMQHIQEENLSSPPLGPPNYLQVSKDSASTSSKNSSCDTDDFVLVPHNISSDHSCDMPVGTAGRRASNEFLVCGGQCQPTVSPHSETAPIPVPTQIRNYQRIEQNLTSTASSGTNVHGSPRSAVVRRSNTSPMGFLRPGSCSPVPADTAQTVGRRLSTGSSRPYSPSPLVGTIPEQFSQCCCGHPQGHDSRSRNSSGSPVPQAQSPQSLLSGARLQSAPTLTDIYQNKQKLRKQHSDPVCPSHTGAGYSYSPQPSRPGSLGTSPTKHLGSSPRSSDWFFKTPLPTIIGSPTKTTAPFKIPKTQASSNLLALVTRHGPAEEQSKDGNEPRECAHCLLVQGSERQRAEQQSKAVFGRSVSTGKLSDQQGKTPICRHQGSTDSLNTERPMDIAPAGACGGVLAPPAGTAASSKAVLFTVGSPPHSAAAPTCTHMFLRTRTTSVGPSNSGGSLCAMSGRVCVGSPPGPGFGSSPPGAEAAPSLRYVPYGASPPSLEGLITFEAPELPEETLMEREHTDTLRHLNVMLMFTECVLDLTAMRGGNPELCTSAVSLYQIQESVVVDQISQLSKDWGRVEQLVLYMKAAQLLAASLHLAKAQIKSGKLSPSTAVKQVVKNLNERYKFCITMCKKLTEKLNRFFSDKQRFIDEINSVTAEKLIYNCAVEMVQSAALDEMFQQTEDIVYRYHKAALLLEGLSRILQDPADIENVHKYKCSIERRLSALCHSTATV

[3] = biological target: Dual specificity protein kinase CLK2 (Homo sapiens, UniProt P49760); assay: Selectivity interaction (KinomeScan (DiscoverX)) EUB0000138c CLK2; conditions: at 100 nM
D(1A) dopamine receptor = D(1A) dopamine receptor (Homo sapiens, UniProt P21728); assay: Selectivity interaction (GPCR panel (PDSP screen)) EUB0000138c DRD1
[4] = biological target: Serine/threonine-protein kinase 3 (Homo sapiens) (UniProt Q13188); assay: Selectivity interaction (KinomeScan (DiscoverX)) EUB0000698a STK3; conditions: at 10 µM
[5] = biological target: T2, Cyclin-dependent kinase 2 (Homo sapiens, UniProt P24941); assay: Selectivity interaction (Kinase panel (enzymatic assay)) EUB0000698a CDK2
[6] = biological target: Serine/threonine-protein kinase Chk2 (Homo sapiens, UniProt O96017); assay: Selectivity interaction (KinomeScan (DiscoverX)) EUB0000702a CHEK2; conditions: at 1 µM
[7] = biological target: Serine/threonine-protein kinase TAO1 (Homo sapiens) (UniProt Q7L7X3); assay: Selectivity interaction (KinomeScan (DiscoverX)) EUB0000702a TAOK1; conditions: at 1 µM
[8] = tested on: Hepatocyte growth factor receptor (Homo sapiens), P08581 [M1250T]; assay: Selectivity interaction (KinomeScan (DiscoverX)) EUB0000702a MET; conditions: at 1 µM
[9] = biological target: Mitogen-activated protein kinase 14 (Homo sapiens, UniProt Q16539); conditions: at 10 µM
[10] = biological target: T2, Cyclin-dependent kinase 2; assay: Selectivity interaction (Kinase panel (University of Dundee)) EUB0000169b CDK2; conditions: at 10 µM
[11] = biological target: Ribosomal protein S6 kinase alpha-5 (Homo sapiens) (UniProt O75582); assay: Selectivity interaction (Kinase panel (University of Dundee)) EUB0000169b RPS6KA5; conditions: at 10 µM
[12] = biological target: T3, Alpha-1A adrenergic receptor (Homo sapiens) (UniProt P35348); assay: Selectivity interaction (SafetyScreen44™ (Eurofins, panel of GPCRS, ion channels, transporters) ) EUB0000169b ADRA1A; conditions: at 10 µM
T3 sequence (whole entry): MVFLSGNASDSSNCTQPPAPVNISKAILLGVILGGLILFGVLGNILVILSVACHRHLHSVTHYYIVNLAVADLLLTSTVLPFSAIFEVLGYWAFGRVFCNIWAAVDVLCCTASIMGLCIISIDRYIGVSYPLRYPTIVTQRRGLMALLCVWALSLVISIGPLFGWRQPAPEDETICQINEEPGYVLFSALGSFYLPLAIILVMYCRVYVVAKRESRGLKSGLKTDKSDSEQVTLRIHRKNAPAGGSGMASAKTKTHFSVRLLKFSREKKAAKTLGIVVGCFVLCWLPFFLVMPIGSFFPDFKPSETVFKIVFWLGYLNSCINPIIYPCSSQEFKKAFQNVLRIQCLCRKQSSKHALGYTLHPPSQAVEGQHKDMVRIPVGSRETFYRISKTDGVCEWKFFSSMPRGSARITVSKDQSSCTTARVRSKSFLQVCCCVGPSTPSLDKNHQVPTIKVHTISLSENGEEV

[13] = biological target: Calcium/calmodulin-dependent protein kinase kinase 2 (Homo sapiens) (UniProt Q96RR4); assay: Selectivity interaction (KinomeScan (DiscoverX)) EUB0000169b CAMKK2; conditions: at 1 µM

Chain of Serine/threonine-protein kinase Chk2 (O96017 whole entry): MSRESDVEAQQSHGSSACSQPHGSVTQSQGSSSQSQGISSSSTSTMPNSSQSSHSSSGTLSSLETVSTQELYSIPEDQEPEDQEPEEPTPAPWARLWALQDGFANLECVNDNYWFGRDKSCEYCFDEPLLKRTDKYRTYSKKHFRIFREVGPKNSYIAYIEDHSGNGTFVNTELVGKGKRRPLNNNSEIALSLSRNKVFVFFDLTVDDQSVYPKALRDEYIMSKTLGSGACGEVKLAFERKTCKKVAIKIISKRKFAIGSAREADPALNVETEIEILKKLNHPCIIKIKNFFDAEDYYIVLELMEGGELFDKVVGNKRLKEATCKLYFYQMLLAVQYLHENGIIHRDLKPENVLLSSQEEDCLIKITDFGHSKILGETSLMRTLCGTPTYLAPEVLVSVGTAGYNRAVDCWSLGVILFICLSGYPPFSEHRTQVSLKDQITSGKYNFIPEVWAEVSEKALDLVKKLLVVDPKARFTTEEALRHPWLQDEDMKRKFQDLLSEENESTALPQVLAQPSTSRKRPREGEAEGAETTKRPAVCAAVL
Chain of Hepatocyte growth factor receptor (Homo sapiens), P08581 [M1250T] (P08581 whole entry M1250T): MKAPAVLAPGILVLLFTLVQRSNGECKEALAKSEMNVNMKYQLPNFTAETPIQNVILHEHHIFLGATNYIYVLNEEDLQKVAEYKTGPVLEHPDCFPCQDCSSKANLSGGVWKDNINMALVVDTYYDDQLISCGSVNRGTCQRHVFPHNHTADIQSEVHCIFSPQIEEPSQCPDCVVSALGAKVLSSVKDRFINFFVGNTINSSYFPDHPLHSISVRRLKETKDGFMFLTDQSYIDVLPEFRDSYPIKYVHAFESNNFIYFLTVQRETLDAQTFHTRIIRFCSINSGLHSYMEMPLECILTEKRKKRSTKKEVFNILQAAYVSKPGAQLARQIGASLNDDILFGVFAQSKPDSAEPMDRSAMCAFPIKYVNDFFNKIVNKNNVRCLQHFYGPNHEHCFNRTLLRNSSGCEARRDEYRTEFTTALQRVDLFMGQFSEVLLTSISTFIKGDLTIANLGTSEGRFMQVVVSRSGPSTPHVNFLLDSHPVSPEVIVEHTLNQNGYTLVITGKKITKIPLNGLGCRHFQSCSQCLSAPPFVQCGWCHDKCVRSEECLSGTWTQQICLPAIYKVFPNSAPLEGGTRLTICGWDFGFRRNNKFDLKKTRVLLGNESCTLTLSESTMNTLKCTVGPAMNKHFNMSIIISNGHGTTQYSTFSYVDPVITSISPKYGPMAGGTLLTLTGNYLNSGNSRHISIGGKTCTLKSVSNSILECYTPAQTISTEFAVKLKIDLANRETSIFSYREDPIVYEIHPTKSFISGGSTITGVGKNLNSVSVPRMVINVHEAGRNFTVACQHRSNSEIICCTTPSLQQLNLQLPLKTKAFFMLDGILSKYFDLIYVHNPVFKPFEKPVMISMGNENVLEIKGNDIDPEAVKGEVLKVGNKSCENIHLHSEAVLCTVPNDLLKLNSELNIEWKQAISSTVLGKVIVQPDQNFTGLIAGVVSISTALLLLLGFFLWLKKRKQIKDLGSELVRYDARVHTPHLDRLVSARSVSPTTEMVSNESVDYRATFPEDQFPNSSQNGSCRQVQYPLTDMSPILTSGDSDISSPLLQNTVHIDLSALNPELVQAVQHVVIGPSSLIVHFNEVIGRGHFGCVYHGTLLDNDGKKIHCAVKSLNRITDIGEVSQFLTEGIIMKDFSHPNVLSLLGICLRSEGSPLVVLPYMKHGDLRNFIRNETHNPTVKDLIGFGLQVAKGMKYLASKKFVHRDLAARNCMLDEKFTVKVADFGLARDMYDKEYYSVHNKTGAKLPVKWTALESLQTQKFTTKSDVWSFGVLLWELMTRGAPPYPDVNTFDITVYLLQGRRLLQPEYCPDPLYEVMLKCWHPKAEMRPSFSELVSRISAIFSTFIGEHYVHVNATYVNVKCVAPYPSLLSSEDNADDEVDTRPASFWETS
Chain of Mitogen-activated protein kinase 14 (Q16539 whole entry): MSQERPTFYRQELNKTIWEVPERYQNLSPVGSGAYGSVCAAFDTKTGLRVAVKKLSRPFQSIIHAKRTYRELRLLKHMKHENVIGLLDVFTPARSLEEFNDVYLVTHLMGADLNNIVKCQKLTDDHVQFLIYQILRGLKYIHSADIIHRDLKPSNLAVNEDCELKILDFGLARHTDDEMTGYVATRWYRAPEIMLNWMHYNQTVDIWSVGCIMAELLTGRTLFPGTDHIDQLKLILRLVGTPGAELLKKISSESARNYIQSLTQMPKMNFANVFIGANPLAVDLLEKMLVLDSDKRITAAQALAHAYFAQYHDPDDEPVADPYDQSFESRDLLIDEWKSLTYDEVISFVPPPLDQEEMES
Chain of Dual specificity protein kinase CLK2 (P49760 whole entry, looked up): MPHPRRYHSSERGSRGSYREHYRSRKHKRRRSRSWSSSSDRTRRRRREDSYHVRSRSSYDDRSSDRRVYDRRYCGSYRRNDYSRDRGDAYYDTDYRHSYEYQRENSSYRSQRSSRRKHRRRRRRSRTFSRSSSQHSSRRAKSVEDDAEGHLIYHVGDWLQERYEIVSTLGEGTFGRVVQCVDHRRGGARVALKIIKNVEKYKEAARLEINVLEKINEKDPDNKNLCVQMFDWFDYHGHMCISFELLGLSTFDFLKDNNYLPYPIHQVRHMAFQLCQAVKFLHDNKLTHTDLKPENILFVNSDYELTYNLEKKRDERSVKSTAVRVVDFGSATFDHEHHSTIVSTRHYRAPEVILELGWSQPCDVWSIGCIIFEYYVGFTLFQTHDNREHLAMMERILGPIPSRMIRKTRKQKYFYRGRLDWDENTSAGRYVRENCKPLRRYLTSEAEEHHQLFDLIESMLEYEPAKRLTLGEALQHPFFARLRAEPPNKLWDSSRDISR
Chain of Tyrosine-protein kinase JAK1 (P23458 whole entry): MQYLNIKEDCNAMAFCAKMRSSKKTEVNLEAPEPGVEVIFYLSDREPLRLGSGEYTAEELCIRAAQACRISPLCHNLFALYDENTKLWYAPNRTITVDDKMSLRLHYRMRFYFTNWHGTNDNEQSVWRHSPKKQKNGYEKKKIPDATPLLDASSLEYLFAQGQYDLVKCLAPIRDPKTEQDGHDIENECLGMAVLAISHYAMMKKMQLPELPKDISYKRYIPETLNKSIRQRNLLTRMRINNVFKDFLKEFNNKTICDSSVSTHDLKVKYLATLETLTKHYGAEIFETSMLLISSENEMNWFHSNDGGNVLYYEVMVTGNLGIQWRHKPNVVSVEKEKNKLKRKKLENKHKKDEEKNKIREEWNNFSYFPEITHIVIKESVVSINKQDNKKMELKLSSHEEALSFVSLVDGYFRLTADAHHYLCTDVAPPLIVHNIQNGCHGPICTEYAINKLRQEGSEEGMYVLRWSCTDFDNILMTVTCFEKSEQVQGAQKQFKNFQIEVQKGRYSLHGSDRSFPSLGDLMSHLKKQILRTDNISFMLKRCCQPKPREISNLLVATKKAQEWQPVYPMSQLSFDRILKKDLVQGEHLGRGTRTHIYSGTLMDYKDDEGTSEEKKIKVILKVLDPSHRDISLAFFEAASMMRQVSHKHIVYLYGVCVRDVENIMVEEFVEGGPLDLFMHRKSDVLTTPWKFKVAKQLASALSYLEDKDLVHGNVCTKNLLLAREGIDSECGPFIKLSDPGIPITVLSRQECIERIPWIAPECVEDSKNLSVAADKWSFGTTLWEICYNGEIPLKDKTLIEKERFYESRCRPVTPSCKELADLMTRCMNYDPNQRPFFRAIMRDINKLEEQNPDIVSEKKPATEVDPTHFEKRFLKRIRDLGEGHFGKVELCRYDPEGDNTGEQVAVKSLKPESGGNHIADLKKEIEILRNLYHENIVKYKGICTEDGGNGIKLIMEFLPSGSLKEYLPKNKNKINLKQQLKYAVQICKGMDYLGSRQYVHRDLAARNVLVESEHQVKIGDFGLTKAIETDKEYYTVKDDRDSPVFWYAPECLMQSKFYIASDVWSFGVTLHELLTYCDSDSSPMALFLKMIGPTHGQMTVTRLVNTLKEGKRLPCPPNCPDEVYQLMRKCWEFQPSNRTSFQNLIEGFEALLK
Chain of Serine/threonine-protein kinase 3 (Homo sapiens) (Q13188 whole entry): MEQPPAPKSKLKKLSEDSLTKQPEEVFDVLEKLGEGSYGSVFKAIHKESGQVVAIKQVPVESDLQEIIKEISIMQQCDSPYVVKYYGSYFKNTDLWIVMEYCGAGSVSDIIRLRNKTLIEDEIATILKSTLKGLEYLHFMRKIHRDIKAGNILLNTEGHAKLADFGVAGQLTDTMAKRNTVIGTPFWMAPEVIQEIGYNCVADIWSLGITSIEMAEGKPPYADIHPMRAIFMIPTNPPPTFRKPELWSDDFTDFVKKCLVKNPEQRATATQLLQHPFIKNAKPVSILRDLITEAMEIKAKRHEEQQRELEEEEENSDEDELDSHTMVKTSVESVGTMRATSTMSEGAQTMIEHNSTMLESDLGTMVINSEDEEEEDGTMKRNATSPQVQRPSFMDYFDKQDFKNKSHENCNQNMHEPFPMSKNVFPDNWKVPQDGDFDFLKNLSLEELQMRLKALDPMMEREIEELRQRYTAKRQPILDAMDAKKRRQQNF
Chain of D(1A) dopamine receptor (P21728 whole entry): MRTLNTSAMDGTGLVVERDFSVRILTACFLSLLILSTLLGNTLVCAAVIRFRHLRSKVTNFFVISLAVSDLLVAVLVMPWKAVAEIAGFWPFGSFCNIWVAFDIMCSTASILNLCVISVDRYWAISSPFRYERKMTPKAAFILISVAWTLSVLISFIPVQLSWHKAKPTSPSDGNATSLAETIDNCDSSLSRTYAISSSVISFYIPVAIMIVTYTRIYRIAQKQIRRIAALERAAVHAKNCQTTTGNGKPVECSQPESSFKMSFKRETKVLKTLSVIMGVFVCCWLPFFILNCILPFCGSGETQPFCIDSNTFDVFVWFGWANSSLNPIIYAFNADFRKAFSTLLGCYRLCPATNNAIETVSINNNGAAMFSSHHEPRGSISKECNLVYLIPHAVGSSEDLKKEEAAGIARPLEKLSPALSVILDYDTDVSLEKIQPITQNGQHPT

Question: For `CN1C(=O)c2sccc2N(C)c2nc(Nc3ccc(S(N)(=O)=O)cc3)ncc21`, which % of control [1] is on record?
Answer: Its % of control is 4.3%.

Question: And the % of control [2]?
Answer: Its % of control is 4.8%.

Question: Which results are given for `CNC(=O)c1ccc(Nc2ncc(C(F)(F)F)c(NCc3nccnc3N(C)S(C)(=O)=O)n2)cc1` [DEFACTINIB]?
Answer: % of control [3]: 0%; Ki (D(1A) dopamine receptor): > 10 µM

Question: Which % of control [4] does the source give for `COc1cc2ncn(-c3cc(OCc4ccccc4C(F)(F)F)c(C(N)=O)s3)c2cc1OC` [GW843682X] here?
Answer: Its % of control is 1.8%.

Question: And the IC50 [5]?
Answer: Its IC50 is 7.6 µM.

Question: What does the source list for `CN(c1ccnc(CNc2nc(Nc3ccc4c(c3)CC(=O)N4)ncc2C(F)(F)F)n1)S(C)(=O)=O` [PF-00911705]?
Answer: % of control [6]: 0%; % of control [7]: 3.7%; % of control [8]: 6.8%

Question: Which results are given for `CC[C@@H]1C(=O)N(C)c2cnc(Nc3ccc(C(=O)NC4CCN(C)CC4)cc3OC)nc2N1C1CCCC1`?
Answer: % of control [9]: 100%; % of control [10]: 20%; % of control [11]: 89%; % of control [12]: 13%; % of control [13]: 3.4%
